Key:
Type in all cases: in vivo
[1] = system: table grape (Thomson green seedless variety); assay: Table grape (Thomson green seedless variety) field trial, Mecca, Calif.: spray at fruit size 12 mm; settings: sprayed at fruit size 12 mm, GA3 4.0 ppm (EBR 0.1 ppm in the combination)
Method: A table grape (Thomson green seedless variety) trial is carried out in Mecca, Calif. Typically, GA3 alone has been used as growth stimulator on table grape at sizing (berry size 10-14 mm), but it can cause uneven ripening and size of berry. [table]

[2] = system: table grape (Flame variety); assay: Table grape (Flame variety) field trial, Coachella, Calif.: spray at fruit size 12 mm; settings: sprayed at fruit size 12 mm, GA3 2.00 ppm (EBR 0.05 ppm in the combination), 100 gal water per acre
Description: A table grape (Flame variety) trial was set up in Coachella, Calif. Typically, GA3 alone has been used as a growth stimulator on table grape at sizing (berry size 10-14 mm), but it can cause uneven ripening and size of berry. [table]

[3] = system: Cherry (Bing variety); assay: Cherry (Bing variety) field trials, Lodi, Calif.: growth regulation effects, spray at straw color; settings: sprayed at straw color, GA3 4.0 ppm (EBR 0.1 ppm in the combination)
Method: Two Cherry (Bing variety) trials are conducted in Lodi, Calif. to compare growth regulation effects of Gibberellic acid (GA3) and Composition of GA3 and 24-epibrassinolide (EBR). Typically, GA3 alone is commonly used on cherry at straw color for the elongation of storage life, but the application of GA3 often causes uneven ripening. [table]

[4] = system: spring wheat (Scotia variety); assay: Spring wheat (Scotia variety) field trial, Arnprior, Ontario: spray at late booting stage, yield; settings: EBR 0.05 ppm applied with Ethephon 0.18%
Method: A spring wheat (Scotia variety) trial is carried out in Arnprior, Ontario, Canada. Typically, Ethephon alone has been used to reduce lodging in wheat. However, it can lead to the loss of yield, especially when it is sprayed at late booting stage.

Structure (SMILES)	Ripening / uniformity of color and size [1]	Fruits picked ([1]; 100 gal water per acre)	Fruits picked [2]	Number of picks needed [2]	Ripening / uniformity of color and size [3]	Fruits picked ([3]; 100 gal water per acre)	Number of picks needed ([3]; 100 gal water per acre)	Effect of EBR on loss of yield caused by Ethephon [4]
C=C1C[C@]23C[C@@]1(O)CC[C@H]2[C@@]12C=C[C@H](O)[C@@](C)(C(=O)O1)[C@H]2[C@@H]3C(=O)O [GA3, Gibberellic acid]	the uneven ripening	Picked 85% of fruits	Picked 90% of fruits	four	the uneven ripening	Picked 85% of fruits	four	
CC(C)[C@@H](C)[C@@H](O)[C@H](O)[C@@H](C)[C@H]1CC[C@H]2[C@@H]3COC(=O)[C@H]4C[C@H](O)[C@H](O)C[C@]4(C)[C@H]3CC[C@]12C [EBR, 24-epibrassinolide]								save/reverse the loss of yield

Source: patent US20210251229A1, “PLANT REGULATOR COMPOSITIONS” (Suntton Company Limited, priority 2020, published 2021)
